Measurements taken from PMC3510080, “Identification of Compounds with Anti-Proliferative Activity against Trypanosoma brucei brucei Strain 427 by a Whole Cell Viability Based HTS Campaign” (PLoS Neglected Tropical Diseases, 2012).
Read-outs that look alike come from different tables or passages of the source.

What was measured:
T.b. brucei = assay: Time to kill assay (Presto Blue); format: cell-based, Trypanosoma brucei brucei; conditions: for IC50: Trypanosoma brucei
Description: The starting dose was 40 µM, and the IC50 values were determined from a 16 point dose-response curve. The assay conditions were the same as previously described for the Alamar Blue assay, except that 10 µL of a final 10% concentration of Presto Blue in HMI-9 medium was added as the indicator of viable cells, at various time points. At the first time point, following 20 hours of incubation with compounds, Presto Blue was added to the wells and incubation at 37°C continued. Plates were read every hour and returned to continue incubation at 37°C. This was performed to determine at which time point there was a reproducible signal (Z' of >0.5), using puromycin as a […].

HEK293 cells = assay: HEK293 Alamar Blue viability estimation assay; format: cell-based, human; conditions: for IC50: Homo sapiens, HEK293
Description: T.b. brucei lister 427 cells were maintained in log phase growth in 25 cm^2 tissue culture flasks (Corning, NY, USA) by sub-culturing at either 24 or 48 hour intervals. Cells were grown in HMI-9 medium, supplemented with 10% fetal calf serum (FCS) and 100 IU/ml penicillin/streptomycin (Invitrogen, Carlsbad, California, USA) with incubation at 5% CO2 at 37°C in humidified conditions. HEK293 cells were maintained in high glucose DMEM with L-glutamine, supplemented with 1× non-essential amino acids (NEAA; Invitrogen, USA) and 1 mM sodium pyruvate. Growth conditions were in 5% CO2 at 37°C, under humidified conditions.
Cells at 80% confluence were harvested and diluted in growth medium (high glucose DMEM supplemented with 10% FCS) to 7.27×10^4 cells/ml. Under sterile conditions, 55 µl of diluted cells per well were added to a black, clear bottomed 384-well lidded plate (BD Biosciences, Bedford, MA, USA) with a Multidrop liquid handler (Thermo Scientific, Barrington, IL, USA). Incubation times, compound additions and plate read were as per the trypanosome viability assay, with the exception that Alamar Blue was diluted in HEK293 growth media before addition, and incubation of Alamar Blue at 37°C, in 5% CO2, was for 4 hours, followed by incubation at room temperature for 20 hours. The activity of compounds against HEK293 cells was used to calculate the SI of mammalian to T.b. brucei cells. The control compound for HEK293 cells was puromycin (Calbiochem, USA).
Compounds identified from primary screening were retested against both T.b. brucei and HEK293 cells in duplicate and at varying concentrations to obtain a dose-response curve. Thus, a 5 µl sample of fresh compound stock solution (5 mM in DMSO) was cherry picked into 384-well plates and diluted 1∶10 in dilution medium (high glucose DMEM without FCS). Serial dilutions of these samples were then prepared in the same media by a Minitrak robotic liquid handler (Perkin Elmer, USA). […] A screening dose of 10.4 µM was included in the dilution series to enable reconfirmation of primary screening T.b. brucei activity.
The DMSO working concentration in the serial dilutions was maintained at 5%, giving a final assay concentration of 0.42% DMSO, except for the 41.7 µM test compound solution, where as previously stated the corresponding DMSO concentration was 0.83% v/v. […] Therefore the 41.7 µM test compound sample with 0.83% v/v DMSO was not used in the T.b. brucei assay and thus the top test compound concentration in this assay was 20.8 µM.
Compound activity in the retest campaign was calculated as percentage inhibition in relation to positive and negative controls, in the same manner as the primary screening campaign. The positive controls, pentamidine (2 µM final concentration) for T.b. brucei and puromycin (8 µM final concentration) for HEK293, were both screened in whole 384-well control plates. Whole 384-well plate controls were included after every batch of 20 compound plates, and were comprised of half a plate of negative control and half a plate of positive control. The negative control was the vehicle, […]. The negative control was also included in column 24 of each compound assay plate to determine signal variation from plate to plate and to calculate compound activity. The exception was the 41.7 µM compound dose used in the HEK293 assay. In these plates column 24 contained 0.83% DMSO as a negative control. A separate 384-well plate containing a 13 point dose-response of the reference compounds puromycin, pentamidine and diminazene, in triplicate, was also included per 20 compound test plate batch to estimate assay sensitivity.
These compounds were retested as in dose for N of three replicates, as described above for both T.b. brucei and HEK293.

P. falciparum K1 strain = assay: P. falciparum 3H-hypoxanthine incorporation assay; SI versus L6 cells; format: cell-based, Plasmodium falciparum; conditions: for IC50: Plasmodium falciparum, K1, L6, read-out: Compound activity P.F (IC50); for Selectivity Index P.F: relative to L6 cells
Description: L6 rat skeletal myoblasts, [29] were purchased from the American Type Culture Collection (ATCC, Rockville, MD, USA; ATCC number CRL 1458). This cell line was used for cytotoxicity testing to calculate an SI against T.b. rhodesiense and screened alongside the T.b. rhodesiense, P. falciparum, T. cruzi and L. donovani assays. L6 were also the host cells for the T. cruzi assay. Assays were performed in 96-well microtiter plates, each well containing 100 µl of RPMI 1640 medium supplemented with 1% L-glutamine (200 mM), 10% FCS, and 4000 L6 cells. Serial drug dilutions of eleven 3-fold dilution steps covering a range from 100 to 0.002 µg/ml were prepared. After 70 hours of incubation the plates were inspected under an inverted microscope to assure growth of the controls and sterile conditions. Ten µl of resazurin solution (resazurin, 12.5 mg in 100 ml double-distilled water) was then added to each well and the plates incubated for another 2 hours. Then the plates were read with a Spectramax Gemini XS microplate fluorometer (Molecular Devices Cooperation, Sunnyvale, CA, USA) using an excitation wavelength of 536 nm and an emission wavelength of 588 nm. Data was analysed using the microplate reader software Softmax Pro (Molecular Devices, USA). Podophyllotoxin was used as a positive control in the assay.
Compounds dissolved in DMSO at 10 mg/ml were added to parasite cultures incubated in RPMI 1640 medium without hypoxanthine, supplemented with HEPES (5.94 g/l), NaHCO3 (2.1 g/l), neomycin (100 U/ml), Albumax (5 g/l) and washed human A^+ red blood cells at 2.5% haematocrit (0.3% parasitaemia). Serial drug dilutions of eleven 3-fold dilution steps covering a range from 100 to 0.002 µg/ml were prepared. The 96-well plates were incubated in a humidified atmosphere at 37°C; 4% CO2, 3% O2, 93% N2. After 48 hours, 50 µl of ^3H-hypoxanthine ( = 0.5 µCi) was added to each well of the plate. The plates were incubated for a further 24 hours under the same conditions. The plates were then harvested with a Betaplate cell harvester (Wallac, Zurich, Switzerland), and the red blood cells transferred onto a glass fibre filter then washed with distilled water. The dried filters were inserted into a plastic foil with 10 ml of scintillation fluid, and counted in a Betaplate liquid scintillation counter (Wallac, Zurich, Switzerland). IC50 values were calculated from sigmoidal inhibition curves using Microsoft Excel.

[1] = 29 hours after addition of compound, 2 experiments, read-out: Activity (IC50 value) 29 hours
[2] = 48 hours after addition of compound, read-out: Activity (IC50 value) 48 hours
[3] = read-out: Activity (IC50 value) 72 hours, 72 hours after addition of compound
[4] = pentamidine 1 µM, diminazene 40 µM

Compound | IC50 (T.b. brucei; [1]) | IC50 (T.b. brucei; [2]) | IC50 (T.b. brucei; [3]) | IC50 (HEK293 cells; read-out: Restest IC50 HEK) | IC50 (P. falciparum K1 strain) | Selectivity Index P.F (P. falciparum K1 strain) | exposure time at which stable/maximum IC50 value was reached (T.b. brucei) | activity in the HEK293 assay at the doses screened, rescreening (HEK293 cells; [4]) | activity in the HEK293 assay at the doses screened, retest campaign (HEK293 cells; [4]) | IC50 (HEK293 cells; reference compound, read-out: IC50 against HEK293, retest screening campaign) | IC50 (HEK293 cells; reference compound, read-out: IC50 in HEK293 assay, rescreening of resynthesized compounds)
CC(C)(C)C(=O)NCCc1csc(-c2cccc(F)c2)n1 [Compound 1] | 898 ± 332 nM | 691 ± 66.4 nM | 1030 ± 18.4 nM | 41700 nM | 35400 ± 2750 nM | 1.76 | – | – | – | – | –
O=C(NCCc1n[nH]c(-c2ccc(F)cc2)n1)c1cccc(F)c1 [Compound 2] | 4840 ± 449 nM | 3830 ± 873 nM | 500 ± 43.1 nM | 41700 nM | 23900 ± 8480 nM | 5.00 | – | – | – | – | –
CCOc1ccc(OCc2ccc(C(=O)N3CCCC(C)C3)cc2)cc1 (centres unmarked) [Compound 3] | – | – | – | 41700 nM | 14300 ± 6640 nM | 3.48 | – | – | – | – | –
Cc1cc(O)nc(-n2nc(C)cc2NC(=O)C2CCCC2)n1 [Compound 4] | – | – | – | – | 8170 ± 4000 nM | 0.110 | – | – | – | – | –
CCS(=O)(=O)N1CCCc2ccc(NS(=O)(=O)c3ccccc3F)cc21 [Compound 5] | – | – | – | – | 12600 ± 5870 nM | 1.72 | – | – | – | – | –
CCC(C)NC(=O)c1nc(-c2ccccc2)cnc1N (centres unmarked) [Compound 6] | 3090 ± 1380 nM | 177 ± 11 nM | 111 ± 50.2 nM | – | 11300 ± 4790 nM | 1.58 | 48 h | – | – | – | –
O=C(Nc1ccc(Cl)c(-c2nc3ncccc3o2)c1)c1ccco1 [Compound 7] | 178 ± 7 nM | 142 ± 38.7 nM | 220 ± 17.6 nM | > 41700 nM | 7760 ± 3220 nM | – | – | – | – | – | –
CCc1ccccc1N=C(NCCN1CCOCC1)NC(=O)c1ccccc1 [Compound 8] | – | – | – | – | 5330 ± 2040 nM | 24.8 | – | – | – | – | –
N=C(N)c1ccc(OCCCCCOc2ccc(C(=N)N)cc2)cc1 [Pentamidine, pentamidine, reference compound] | 9.13 ± 2.76 nM | 3.41 ± 0.661 nM | 4.66 ± 0.936 nM | – | – | – | 48 h | neither pentamidine nor diminazene displayed activity | Neither pentamidine nor diminazene displayed activity | – | –
COc1ccc(C[C@H](N)C(=O)N[C@H]2[C@@H](O)[C@H](n3cnc4c(N(C)C)ncnc43)O[C@@H]2CO)cc1 [Puromycin, puromycin, reference compound] | 152 ± 65.4 nM | 58.1 ± 10.1 nM | 68.6 ± 0.283 nM | – | – | – | 48 h | – | – | 1120 ± 155 nM | 518 ± 28.1 nM
